Where two headings read alike, the source gives them in different places.
Target: T1, Synechococcus PDS (phytoene desaturase) (Synechococcus elongatus, UniProt P26294)
T1 construct: recombinant, pET15b-Synechococcus PDS
Experiment: SPR (Biacore 8K, protein immobilized on CM5 chip)
Assay type: binding

T1 sequence (P26294 whole entry): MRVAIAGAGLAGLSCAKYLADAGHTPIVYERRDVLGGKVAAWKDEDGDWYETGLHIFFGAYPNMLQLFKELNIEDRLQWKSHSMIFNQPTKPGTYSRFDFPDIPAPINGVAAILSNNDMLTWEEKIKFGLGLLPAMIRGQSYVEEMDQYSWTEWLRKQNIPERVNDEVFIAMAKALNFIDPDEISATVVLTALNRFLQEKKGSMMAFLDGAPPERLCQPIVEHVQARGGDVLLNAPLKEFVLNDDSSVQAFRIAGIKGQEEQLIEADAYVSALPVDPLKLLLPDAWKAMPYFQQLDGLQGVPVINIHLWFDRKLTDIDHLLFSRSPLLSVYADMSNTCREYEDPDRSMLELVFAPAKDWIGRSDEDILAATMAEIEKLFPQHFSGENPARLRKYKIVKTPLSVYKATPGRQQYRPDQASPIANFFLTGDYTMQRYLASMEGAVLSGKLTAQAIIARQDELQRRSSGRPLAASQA

| Structure (SMILES) | Kd (read-out: Kd) [µM] | Kd [µM] |
| --- | --- | --- |
| Cc1cc(-c2cccc(C(F)(F)F)c2)c(Oc2ccc(C(F)(F)F)cc2)nn1 [2a, 6-methyl-3-(4-(trifluoromethyl)phenoxy)-4-(3(trifluoromethyl)phenyl)pyridazine] | 7.08 |  |
| CCc1cc(-c2cccc(C(F)(F)F)c2)c(Oc2cc(F)c(F)c(F)c2)nn1 [3h, 6-ethyl-4-(3-(trifluoromethyl)phenyl)-3-(3,4,5-trifluorophenoxy)pyridazine] | 63.2 |  |
| Cc1cc(-c2cccc(C(F)(F)F)c2)c(Oc2ccc(C#N)cc2)nn1 [compound 1] | 43.5 |  |
| O=C(Nc1ccc(F)cc1F)c1cccnc1Oc1cccc(C(F)(F)F)c1 [diflufenican] |  | 70.8 |
